Test results reported in the NIST ThermoML archive (doi:10.1021/acs.jced.7b00192).

Experiment: molar heat capacity at constant pressure; mn = molality of the nth substance listed, in mol/kg
Details: 10000 kPa, Liquid, Large sample (1 g) DSC

[K+].[OH-] [potassium hydroxide] + O
molar heat capacity at constant pressure [J/K/mol]
Details | m1 = 0.201 | m1 = 0.5009 | m1 = 0.999 | m1 = 2.012 | m1 = 3 | m1 = 4.505 | m1 = 6.002
325 K | 74.45 | 73.81 | 72.8 | 71.28 | 70.15 | 69.18 | 68.41
337.4 K | 74.58 | 73.96 | 73.05 | 71.64 | 70.55 | 69.5 | 68.84
349.7 K | 74.72 | 74.09 | – | – | – | – | 69.19
349.8 K | – | – | 73.21 | 71.81 | 70.8 | 69.82 | –
362.1 K | 74.89 | 74.29 | 73.45 | 72.13 | 71.12 | 70.2 | 69.62
374.5 K | 75.11 | 74.49 | 73.67 | 72.43 | 71.42 | 70.5 | 69.98
386.8 K | 75.37 | 74.76 | 73.96 | 72.65 | 71.69 | 70.78 | 70.31
399.2 K | 75.69 | 75.06 | 74.27 | 72.97 | 72.03 | 71.12 | 70.62
411.5 K | – | – | – | – | – | – | 70.86
411.6 K | 76.08 | 75.46 | 74.6 | 73.21 | 72.28 | 71.37 | –
423.9 K | 76.54 | 75.88 | 74.91 | 73.59 | 72.62 | 71.69 | 71.13
436.3 K | 77.1 | 76.36 | 75.36 | 73.96 | 72.91 | 71.95 | 71.43
448.6 K | 77.74 | – | – | – | – | – | 71.78
448.7 K | – | 76.95 | 75.9 | 74.44 | 73.28 | 72.37 | –
461 K | 78.47 | 77.61 | 76.51 | 74.86 | 73.71 | 72.74 | 72.04
473.4 K | 79.36 | 78.39 | 77.23 | 75.47 | 74.29 | 73.14 | 72.44
485.7 K | 80.4 | 79.34 | – | – | 74.75 | 73.56 | 72.83
485.8 K | – | – | 78 | 76.01 | – | – | –
498.1 K | 81.6 | 80.4 | 78.94 | 76.7 | 75.36 | 74.05 | 73.27
510.5 K | 83.06 | 81.72 | 80 | 77.49 | 75.91 | 74.43 | 73.69
522.8 K | 84.83 | 83.26 | 81.23 | – | 76.7 | 74.99 | 74.16
522.9 K | – | – | – | 78.41 | – | – | –
535.2 K | 87.02 | 85.12 | 82.83 | 79.52 | 77.5 | 75.54 | 74.51
547.6 K | 89.76 | 87.48 | 84.7 | 80.95 | 78.49 | 76.26 | 75.11
555 K | 91.77 | 89.19 | 86.04 | 81.81 | 79.19 | 76.73 | 75.41
564.9 K | 95.05 | 91.89 | 88.12 | 83.07 | 80.09 | 77.46 | 75.77
